Experimental data from US8017612B2, “Piperazine compound and use thereof as a HCV polymerase inhibitor” (priority 2006, dated 2011).
Where a name gives a salt, the structure may show the parent alone.

Key:
[1] = target: T1, HCV polymerase (NS5B) type 1b (Hepatitis C virus genotype 1b, UniProt P26663); assay: Assay of enzyme (HCV polymerase) inhibitory activity, type 1b enzyme; format: biochemical, HCV BK strain (type 1b); details: HCV polymerase inhibitory activity (IC50), 1b, type 1b enzyme 0.5 μg/ml, 25° C., 60 min
T1 construct: a region encoding NS5B (J Virol 1991 March, 65(3), 1105-13, 544 amino acids after deletion of 47 amino acids on the C-terminal); 6xHis (C); made in house; host or cells: Escherichia coli
Outline: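 His-tagged, C-terminally truncated NS5B (BK strain, 1b; 0.5 μg/ml) incubated with compound 60 min at 25 °C on 3′UTR-derived substrate RNA (5 μg/ml), 50 μM ATP/GTP/CTP, 2 μM UTP plus [3H]UTP, pH 7.5. Acid-precipitated RNA counted; IC50 from radioactivity with and without compound.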

[2] = target: T2, HCV polymerase (NS5B) type 1a (Hepatitis C virus genotype 1a, UniProt P26664); assay: Assay of enzyme (HCV polymerase) inhibitory activity, type 1a enzyme; format: biochemical, HCV type 1a (cloned from the blood of patients); details: HCV polymerase inhibitory activity (IC50), 1a, type 1a enzyme 1.5 μg/ml, 25° C., 60 min
T2 construct: made in house; host or cells: Escherichia coli (by the 'similar method' of the 1b enzyme)
Outline: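 His-tagged NS5B, C-terminal 47 residues deleted, type 1a at 1.5 μg/ml, with 5 μg/ml HCV 3′UTR substrate RNA, 50 μM ATP/GTP/CTP, 2 μM UTP plus [3H]UTP, pH 7.5 Tris, 5 mM MgCl2; 60 min at 25° C. TCA-precipitated RNA counted by scintillation; IC50 from radioactivity with vs. without compound.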

SMILES | IC50 [1] [nM] | IC50 [2] [nM]
CC(=O)N1CCN(S(=O)(=O)c2ccc(C(C)C)cc2)C(C(=O)NCc2ccc(N)cc2)C1 (stereo not drawn) [Example 90, 4-acetyl-1-(4-isopropyl-benzenesulfonyl)-piperazine-2-carboxylic acid 4-amino-benzylamide] | > 1000 | > 1000
CCCCc1ccc(S(=O)(=O)N2CCN(C(C)=O)CC2C(=O)NCc2ccc(C(F)(F)F)cc2)cc1 (stereo not drawn) [Example 91, 4-acetyl-1-(4-butyl-benzenesulfonyl)-piperazine-2-carboxylic acid 4-trifluoromethyl-benzylamide] | > 1000 | > 1000
CC(=O)N1CCN(S(=O)(=O)c2ccc(N(C)C)cc2)C(C(=O)NCc2ccc(C(F)(F)F)cc2)C1 (stereo not drawn) [Example 92, 4-acetyl-1-(4-dimethylamino-benzenesulfonyl)-piperazine-2-carboxylic acid 4-trifluoromethyl-benzylamide] | > 1000 | > 1000
CC(=O)N1CCN(S(=O)(=O)c2ccc(N)cc2)C(C(=O)NCc2ccc(C(F)(F)F)cc2)C1 (stereo not drawn) [Example 93, 4-acetyl-1-(4-amino-benzenesulfonyl)-piperazine-2-carboxylic acid 4-trifluoromethyl-benzylamide hydrochloride] | > 1000 | > 1000
COC(=O)CN1CCN(S(=O)(=O)c2ccc(I)cc2)C(C(=O)NCc2ccc(N(C)C)cc2)C1 (stereo not drawn) [Example 94, [3-(4-dimethylamino-benzylcarbamoyl)-4-(4-iodo-benzenesulfonyl)-piperazin-1-yl]-acetic acid methyl ester] | > 1000 | > 1000
CN(C)CC(=O)N1CCN(S(=O)(=O)c2ccc(I)cc2)C(C(=O)NCc2ccc(N(C)C)cc2)C1 (stereo not drawn) [Example 95, 4-(2-dimethylamino-acetyl)-1-(4-iodo-benzenesulfonyl)-piperazine-2-carboxylic acid 4-dimethylamino-benzylamide] | > 1000 | > 1000
CN(C)c1ccc(CNC(=O)C2CN(CC(=O)O)CCN2S(=O)(=O)c2ccc(I)cc2)cc1 (stereo not drawn) [Example 96, [3-(4-dimethylamino-benzylcarbamoyl)-4-(4-iodo-benzenesulfonyl)-piperazin-1-yl]-acetic acid] | > 1000 | > 1000
CCC(C)(C)c1ccc(S(=O)(=O)N2CCN(C(C)=O)CC2C(=O)NCc2ccc(C(F)(F)F)cc2)cc1 (stereo not drawn) [Example 97, 4-acetyl-1-[4-(1,1-dimethyl-propyl)-benzenesulfonyl]-piperazine-2-carboxylic acid 4-trifluoromethyl-benzylamide] | > 1000 | > 1000
CC(=O)N1CCN(S(=O)(=O)c2ccc(C(C)C)cc2)C(C(=O)NCc2ccc(NC(=O)C(C)(C)C)cc2)C1 (stereo not drawn) [Example 98, 4-acetyl-1-(4-isopropyl-benzenesulfonyl)-piperazine-2-carboxylic acid 4-(2,2-dimethyl-propionylamino)-benzylamide] | > 1000 | > 1000
CC(=O)N1CCN(S(=O)(=O)c2ccc(C(C)C)cc2)C(C(=O)NCc2ccc(C(=O)O)cc2)C1 (stereo not drawn) [Example 99, 4-({[4-acetyl-1-(4-isopropyl-benzenesulfonyl)-piperazine-2-carbonyl]-amino}-methyl)-benzoic acid] | > 1000 | > 1000
CC(=O)N1CCN(S(=O)(=O)c2ccc(C(C)C)cc2)C(C(=O)NCc2ccc(Cl)c(Cl)c2)C1 (stereo not drawn) [Example 100, 4-acetyl-1-(4-isopropyl-benzenesulfonyl)-piperazine-2-carboxylic acid 3,4-dichloro-benzylamide] | > 1000 | > 1000
CC(=O)N1CCN(S(=O)(=O)c2ccc(C(C)C)cc2)C(C(=O)NCc2ccc(Cl)cc2Cl)C1 (stereo not drawn) [Example 101, 4-acetyl-1-(4-isopropyl-benzenesulfonyl)-piperazine-2-carboxylic acid 2,4-dichloro-benzylamide] | > 1000 | > 1000
CN(C)c1ccc(CNC(=O)C2CN(C(=O)CN3CCCCC3)CCN2S(=O)(=O)c2ccc(I)cc2)cc1 (stereo not drawn) [Example 102, 1-(4-iodo-benzenesulfonyl)-4-(2-piperidin-1-yl-acetyl)-piperazine-2-carboxylic acid 4-dimethylamino-benzylamide] | > 1000 | > 1000
CC(C)c1ccc(S(=O)(=O)N2CCN(C3=NCCN3)CC2C(=O)NCc2ccc(C(F)(F)F)cc2)cc1 (stereo not drawn) [Example 103, 4-(4,5-dihydro-1H-imidazol-2-yl)-1-(4-isopropyl-benzenesulfonyl)-piperazine-2-carboxylic acid 4-trifluoromethyl-benzylamide] | > 1000 | > 1000
CN(C)c1ccc(CNC(=O)C2CN(C(=O)CN3CCOCC3)CCN2S(=O)(=O)c2ccc(I)cc2)cc1 (stereo not drawn) [Example 104, 1-(4-iodo-benzenesulfonyl)-4-(2-morpholin-4-yl-acetyl)-piperazine-2-carboxylic acid 4-dimethylamino-benzylamide] | > 1000 | > 1000
CN(C)c1ccc(CNC(=O)C2CN(C(=O)CNCc3ccccc3)CCN2S(=O)(=O)c2ccc(I)cc2)cc1 (stereo not drawn) [Example 105, 4-(2-benzylamino-acetyl)-1-(4-iodo-benzenesulfonyl)-piperazine-2-carboxylic acid 4-dimethylamino-benzylamide] | > 1000 | > 1000
COC(=O)c1ccc(S(=O)(=O)N2CCN(C(C)=O)CC2C(=O)NCc2ccc(C(F)(F)F)cc2)cc1 (stereo not drawn) [Example 106, 4-[4-acetyl-2-(4-trifluoromethyl-benzylcarbamoyl)-piperazine-1-sulfonyl]-benzoic acid methyl ester] | > 1000 | > 1000
CC(=O)N1CCN(S(=O)(=O)c2ccc(C(=O)O)cc2)C(C(=O)NCc2ccc(C(F)(F)F)cc2)C1 (stereo not drawn) [Example 107, 4-[4-acetyl-2-(4-trifluoromethyl-benzylcarbamoyl)-piperazine-1-sulfonyl]-benzoic acid] | > 1000 | > 1000
CC(=O)N1CCN(S(=O)(=O)c2ccc(C(C)C)cc2)C(C(=O)NCc2ccc(-c3cnn(C)c3)cc2)C1 (stereo not drawn) [Example 108, 4-acetyl-1-(4-isopropyl-benzenesulfonyl)-piperazine-2-carboxylic acid 4-(1-methyl-1H-pyrazol-4-yl)-benzylamide] | > 1000 | > 1000
CC(=O)N1CCN(S(=O)(=O)c2ccc(C(C)C)cc2)C(C(=O)NCc2ccc(N3CCCCC3)cc2)C1 (stereo not drawn) [Example 109, 4-acetyl-1-(4-isopropyl-benzenesulfonyl)-piperazine-2-carboxylic acid 4-piperidin-1-yl-benzylamide] | > 1000 | > 1000
CCCN(CCC)CC(=O)N1CCN(S(=O)(=O)c2ccc(I)cc2)C(C(=O)NCc2ccc(N(C)C)cc2)C1 (stereo not drawn) [Example 110, 4-(2-dipropylamino-acetyl)-1-(4-iodo-benzenesulfonyl)-piperazine-2-carboxylic acid 4-dimethylamino-benzylamide] | > 1000 | > 1000
CC(C)c1ccc(S(=O)(=O)N2CCN(C(N)=S)CC2C(=O)NCc2ccc(C(F)(F)F)cc2)cc1 (stereo not drawn) [Example 111, 1-(4-isopropyl-benzenesulfonyl)-4-thiocarbamoyl-piperazine-2-carboxylic acid 4-trifluoromethyl-benzylamide] | > 1000 | > 1000
CC(C)c1ccc(S(=O)(=O)N2CCN(C3=NCCS3)CC2C(=O)NCc2ccc(C(F)(F)F)cc2)cc1 (stereo not drawn) [Example 112, 4-(4,5-dihydro-thiazol-2-yl)-1-(4-isopropyl-benzenesulfonyl)-piperazine-2-carboxylic acid 4-trifluoromethyl-benzylamide] | > 1000 | > 1000
CN(C)c1ccc(CNC(=O)C2CN(C(=O)CCN3CCOCC3)CCN2S(=O)(=O)c2ccc(I)cc2)cc1 (stereo not drawn) [Example 113, 1-(4-iodo-benzenesulfonyl)-4-(3-morpholin-4-yl-propionyl)-piperazine-2-carboxylic acid 4-dimethylamino-benzylamide] | > 1000 | > 1000
CCCN(CCC)CCC(=O)N1CCN(S(=O)(=O)c2ccc(I)cc2)C(C(=O)NCc2ccc(N(C)C)cc2)C1 (stereo not drawn) [Example 114, 4-(3-dipropylamino-propionyl)-1-(4-iodo-benzenesulfonyl)-piperazine-2-carboxylic acid 4-dimethylamino-benzylamide] | > 1000 | > 1000
Cc1csc(N2CCN(S(=O)(=O)c3ccc(C(C)C)cc3)C(C(=O)NCc3ccc(C(F)(F)F)cc3)C2)n1 (stereo not drawn) [Example 115, 1-(4-isopropyl-benzenesulfonyl)-4-(4-methyl-thiazol-2-yl)-piperazine-2-carboxylic acid 4-trifluoromethyl-benzylamide] | > 1000 | > 1000
CC(=O)N1CCN(S(=O)(=O)c2ccc(C(C)C)cc2)C(C(=O)NCc2ccc(-c3ccc(Cl)cc3)cc2)C1 (stereo not drawn) [Example 116, 4-acetyl-1-(4-isopropyl-benzenesulfonyl)-piperazine-2-carboxylic acid (4′-chloro-biphenyl-4-ylmethyl)-amide] | > 1000 | > 1000
